Results published in patent US11660270B2, “Nanoparticle compositions” (Indiana University Research and Technology Corporation, priority 2017, dated 2023).

Experiments:
[1] = Solvent screening for dissolving drugs and polymers; assay type: physicochemical; settings: added to 1 ml of test solvent, vortex; smallest amount of solvent for immediate solubilization
Description: The following solvents were compared for use as drug solvents in nanoprecipitation: acetone, ethanol, tetrahydrofuran (THF), acetic acid, acetonitrile, dimethylsulfoxide (DMSO), dimethylformamide (DMF), N-methylpyrrolidone (NMP), methanol, n-propanol and isopropanol.
Chloroform, dichloromethane (DCM), ethanol, acetone, methanol and ethyl acetate were tested as polymer solvents.
Drugs (thyrotropin-releasing hormone (TRH), oxytocin, and luteinizing hormone-releasing hormone (LHRH)) and polymers (polysebacic acid, and PLGA (poly(lactide-co-glycolide)) with either a 1:1 or 3:1 molar ratio of lactide to glycolide) were added to 1 ml of test solvent and stirred vigorously by vortex.

[2] = in vivo; cited from earlier work

Molecule	best solvent for dissolving [1]	plasma half-life [2]
CC[C@H](C)[C@@H]1NC(=O)[C@H](Cc2ccc(O)cc2)NC(=O)[C@@H](N)CSSC[C@@H](C(=O)N2CCC[C@H]2C(=O)N[C@@H](CC(C)C)C(=O)NCC(N)=O)NC(=O)[C@H](CC(N)=O)NC(=O)[C@H](CCC(N)=O)NC1=O [oxytocin]	acetic acid	–
NC(=O)[C@@H]1CCCN1C(=O)[C@H](Cc1cnc[nH]1)NC(=O)[C@@H]1CCC(=O)N1 [TRH, pyroglutamyl-histidyl-proline-amide]	Ethanol	about 8 minutes
luteinizing hormone-releasing hormone [LHRH]	acetic acid	–
